{"source": "ChEMBL document CHEMBL5136967", "about": "“Identification of molecular glues of the SLP76/14-3-3 protein-protein interaction” (RSC Med Chem, 2021)", "organism": "Homo sapiens", "assay": "Binding affinity to His6-tagged/Tb-labelled 14-3-3gamma (unknown origin)/His6-SUMO-tagged/AF647-labelled SLP76 (unknown origin) expressed in Noco21 (DE3) cells assessed as fold change in KD improvement by HTRF assay", "data": [{"smiles": "CC(C)N1CC[C@H]2COC(=O)N2c2cc(F)ccc2C1", "values": [{"measurement": "fold change (FC)", "result": 4.1}]}, {"smiles": "O=C1OC[C@@H]2CCN(Cc3ccccc3)Cc3ccccc3N12", "values": [{"measurement": "fold change (FC)", "result": 3.3}]}, {"smiles": "Fc1ccc(OCc2nn3c(Cn4cnc5ccccc54)nnc3s2)cc1", "values": [{"measurement": "fold change (FC)", "result": 3.5}]}, {"smiles": "CC(C)CNC(=O)c1ccc2c(c1)nc1n2CCN(C(C)C)C1=O", "values": [{"measurement": "fold change (FC)", "result": 5.2}]}, {"smiles": "O=C(c1ccc(Cl)cc1)n1c(Cn2nnc(-c3cccc4ccccc34)n2)n[nH]c1=S", "values": [{"measurement": "fold change (FC)", "result": 1.8}]}, {"smiles": "COc1ccc(C(=O)N2C[C@@H]3CN(CCO3)C(=O)[C@@H]3C[C@@H](CN3Cc3ccc4c(c3)OCO4)NC(=O)C[C@@H]3O[C@H](C2)[C@@H](O)[C@H]3O)cc1", "values": [{"measurement": "fold change (FC)", "result": 3.4}]}, {"smiles": "c1cc(-c2nnc3scnn23)ccn1", "values": [{"measurement": "fold change (FC)", "result": 4.4}]}, {"smiles": "CC1=Nn2c(nnc2-c2ccoc2C)SC1", "values": [{"measurement": "fold change (FC)", "result": 1.4}]}, {"smiles": "CC1=CCC2COC(C[N+]3(C)CCCCC3)C1C2", "note": "(configuration not stated)", "values": [{"measurement": "fold change (FC)", "result": 4.7}]}, {"smiles": "COc1ccccc1-c1nnc2scnn12", "values": [{"measurement": "fold change (FC)", "result": 11}]}, {"smiles": "S=c1[nH]nc(Cn2nnc3ccccc32)o1", "values": [{"measurement": "fold change (FC)", "result": 1.1}]}, {"smiles": "O=C(Cn1nc(C(F)(F)F)c2c1CCCC2)Nc1ccc(Cl)c(Cl)c1", "values": [{"measurement": "fold change (FC)", "result": 14.6}]}]}
